As a reminder, the IC50 is the concentration that gives 50% inhibition.

The results in this text go back to publication PMC10695616, “Rational design peptide inhibitors of Cyclophilin D as a potential treatment for acute pancreatitis” (Medicine, 2023).

Ends that are not written are not given here.

For the experiment, the target named is T1, Human recombinant CypD (Homo sapiens, UniProt P30405).
T1 construct: purchased Beyotime (Shanghai, China)
T1 sequence (P30405 30-207): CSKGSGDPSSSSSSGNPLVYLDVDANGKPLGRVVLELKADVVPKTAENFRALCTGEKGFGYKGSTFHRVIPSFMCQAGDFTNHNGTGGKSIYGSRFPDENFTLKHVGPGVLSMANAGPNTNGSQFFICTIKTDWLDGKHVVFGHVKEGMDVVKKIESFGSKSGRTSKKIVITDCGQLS
Description: chymotrypsin coupled prolyl-isomerase inhibitory assay. Type of experiment: biochemical. To be noted: Suc-AAPF-AMC substrate, peptide 0.001 to 100 μM, 25 °C. The method, then: The method for measuring half-maximal inhibitory concentration (IC50) values of the peptides against CypD was described previously as chymotrypsin coupled prolyl-isomerase assay. Human recombinant CypD was purchased from Beyotime (Shanghai, China). The substrate solution for inhibitory assay was prepared as 100 μM Suc-AAPF-AMC (Chymotrypsin Substrate II, Sigma–Aldrich, Shanghai, China) with varied concentration of selected peptide (varied from 0.001 to 100 μM), 15 μg/mL CypD, and 0.5 M LiCl/2,2,2-trifluoroethanol. Alpha-chymotrypsin from bovine pancreas was purchased from Sigma (Shanghai, China) and dissolved in 0.001 M HCl, the concentration for chymotrypsin was prepared to 5 mg/mL. For inhibitory assay, the 96-well plate was filled with 150 μL of the substrate solution and incubated at 25 °C for 1 hour, followed by adding 40 μL of the chymotrypsin solution. The fluorescent changes under 380 nm was captured every 5 seconds for 300 seconds using Mltrospec 3100. The IC50 value was calculated which indicated the peptide concentration needed for obtaining 50% of […] inhibitory activity.
The binding affinity of selected peptides against CypD was tested using a modified inhibitory assay.[37] […] The selected 5 peptides were preincubated with CypD to validate their capability for blocking CypD activity. […] Compound C-9 was previously reported as a strong binder of CypD,[37] therefore, we adopted compound C-9 as a reference sample to evaluate the binding activity of the designed peptides.
As to WACKN [WACKN], the IC50 was 2460 nM.
As to WACKQ [WACKQ], the 50% inhibitory concentration (IC50) is 10500 nM.
As for WACLQ [WACLQ], the IC50 turned out to be 370 nM.
The value for WACNQ [WACNQ] was 2630 nM.
